From patent US6849639B2, “Integrin inhibitors and their methods of use” (Amgen Inc., priority 1999, dated 2005)
Where a name gives a salt, the structure may show the parent alone.

| melting point | Compound |
| --- | --- |
| 230 °C (dec.) | O=C(O)CC(NC(=O)C1CC(=O)N(c2cccc(NC(=S)NCc3ccccc3)c2)C1)c1cccnc1 (centres unmarked) (as salt: sodium) [Example 20, 3-({5-oxo-1-(3-({(benzylamino)thioxomethyl}amino)phenyl)pyrrolidin-3-yl}carbonylamino)-3-(3-pyridyl)propanoic acid, sodium salt] |
| 230 °C (dec.) | O=C(O)CC(NC(=O)C1CC(=O)N(c2cccc(NC(=S)NCc3ccc(F)cc3)c2)C1)c1cccnc1 (centres unmarked) (as salt: sodium) [Example 21, 3-((1-{3-(({((4-fluorophenyl)methyl)amino}thioxomethyl)amino)phenyl}-5-oxopyrrolidin-3-yl)carbonylamino)-3-(3-pyridyl)propanoic acid, sodium salt] |
| 240 °C (dec.) | O=C(O)CC(NC(=O)C1CC(=O)N(c2cccc(NC(=S)NCc3ccco3)c2)C1)c1cccnc1 (centres unmarked) (as salt: sodium) [Example 22, 3-({1-(3-({((2-furylmethyl)amino)thioxomethyl}amino)phenyl)-5-oxopyrrolidin-3-yl}carbonylamino)-3-(3-pyridyl)propanoic acid, sodium salt] |
| 250 °C (dec.) | CC(C)CCNC(=S)Nc1cccc(N2CC(C(=O)NC(CC(=O)O)c3cccnc3)CC2=O)c1 (centres unmarked) (as salt: sodium) [Example 23, 3-({1-(3-({((3-methylbutyl)amino)thiooxomethyl}amino)phenyl)-5-oxopyrroidin-3-yl}carbonylamino)-3-(3-pyridyl)propanoic acid, sodium salt] |
| 235 °C (dec.) | CCCCNC(=S)Nc1cccc(N2CC(C(=O)NC(CC(=O)O)c3cccnc3)CC2=O)c1 (centres unmarked) (as salt: sodium) [Example 24, 3-{(1-(3-{((butylamino)thioxomethyl)amino}phenyl)-5-oxopyrrolidin-3-yl)carbonylamino}-3-(3-pyridyl)propanoic acid, sodium salt] |
